Patent publication US20260137795A1, “EXATECAN IMMUNOCONJUGATES” (Immunome, Inc., priority 2023, published 2026)
Counter-ions that a name gives are not always drawn.

Assays:
physchem = experiment: physchem; parameters: dose or concentration left out as unconfirmed; settings: PAMPA
Jeko-1 = experiment: CTG assay of payloads (CellTiter-Glo cell viability); assay type: cell-based
Source text: The CTG assay is a method of determining the number of viable cells in culture based on quantitation of the ATP present, an indicator of metabolically active cells. The cell assay requires the addition of a single reagent, Cell Titer Glo, in which cells are lysed and generation of a luminescent signal is produced. The luminescent signal is proportional to the amount of ATP present. The amount of ATP is directly proportional to the number of cells present in culture. For our assay, cells are ensured to be in log-phase for either Jeko-1 or MDA-MB-468. Cells are transferred to 96 wells and treated with compounds in three-fold serial dilution starting from […] (10 points dilution), for 72 h. Cell viability is analyzed with CellTiter-Glo® Luminescent Cell Viability Assay (Promega) following manufactures' instruction. Percentage of viable cells in each compound concentration is determined by normalizing with the luminescence of vehicle control and plotted into percentage of viability versus dose response curve by nonlinear fit in GraphPad Prism software.

[1] = Human liver microsome clearance (HLM CL); assay type: in vitro ADME; parameters: half-life: dose or concentration left out as unconfirmed; settings: for half-life: human, microsomes; for HLM Cl T1/2: human liver microsome clearance, 60 min incubation, NADPH
Procedure: Working solution is prepared by adding 5 μL of compound and control stock solution (10 mM in dimethyl sulfoxide, DMSO) to 495 μL of acetonitrile (ACN) (intermediate solution concentration: 100 μM, 99% CAN and 1% DMSO. The appropriate concentrations of microsome working solutions are prepared in 100 mM potassium phosphate buffer. After reaction plates containing mixtures of compound and microsomes are pre-incubated at 37° C., for 10 min. […] of 2 mM of NADPH and 2 mM of MgCl2 solution is added to start the reaction. The final concentrations of incubation medium are as follows: microsome-0.5 mg protein/mL, test compound/control […], NADPH—1 mM, MgCl2—1 mM, acetonitrile 0.99%, DMSO 0.01%. Incubations are performed at 37° C., for 60 min. Samples are taken out at T0, T5, T15, T30, T45 and T60, which is added intermediately to the ice-cold stop solution (acetonitrile with 200) ng/ml of tobutamide and labetalol as internal standard) (125 μl), shaken for 10 min, centrifuged at 4000 rpm for 20 min at 4° C. Analytical plates are analyzed by LCMS.
Human liver microsome clearance assay assess metabolism by the cytochrome P450 system (phase I enzymes). These enzymes oxidize substrates by incorporating oxygen atoms into hydrocarbons, thus causing the introduction of hydroxyl groups, or N- O- and S-dealkylation of substrates and forming more polar products easier to be cleared. Human hepatocyte clearance assay measures more broadly the overall cellular metabolism of the test compound (phase I and phase II enzyme pathways). Phase II enzymes catalyze the conjugation reaction of xenobiotic metabolites and charged species, such as glutathione, sulfate, glycine, or glucuronic acid to form even more polar compounds for easier clearance.

[2] = Human hepatocyte clearance (HHEP CL); assay type: in vitro ADME; parameters: half-life: dose or concentration left out as unconfirmed; settings: for half-life: both sexes, human; for HHEP Cl T1/2: human hepatocytes intrinsic clearance, 90 min incubation
Procedure: Suspensions of human hepatocytes (from 10 mixed gender human donors, final concentration 0.5×10^6 cell/mL) in Williams' E medium are incubated for 90 min with a test compound (0.90% acetonitrile and 0.10% DMSO, final concentration […]) and positive controls (7-Ethoxycoumarin, 7-Hydroxycoumarin, 0.90% acetonitrile and 0.10% DMSO, final concentration […]), with constant shaking at about 600 rpm at 37° C., in an incubator at 5% CO2 and 95% humidity. The total volume of incubation was 200 μL. A sample ([…]) is taken out at TO, 15, 30, 60 and 90 min, which is added intermediately to the ice-cold stop solution (acetonitrile with 200 ng/ml of tobutamide and labetalol as internal standard) (125 μl), and vortexed at 500 rpm for 10 min, centrifuged at 3220×g for 20 min at 4° C. Analytical plates are sealed and stored at 4° C., until LCMS analysis. Viability of hepatocytes at pre-incubation is determined to be 84.5%.

[3] = PAMPA (Parallel Artificial Membrane Permeability Assay); parameters: dose or concentration left out as unconfirmed; settings: pH 7.4
[4] = AC-SINS self-interaction (antibody developability); assay type: physicochemical; settings: FIG. 19
Procedure: Antibody developability was assessed by performing an AC-SINS assay and evaluating the potential for self-interaction.
An initial assessment of antibody developability was performed by AC-SINS to evaluate the potential for self-interaction (FIG. 19).

Compound `CC[C@@]1(O)C(=O)OCc2c1cc1n(c2=O)Cc2c-1nc1cc(F)c(C)c3c1c2[C@H]([C@H](N)CO)CC3` (single isomer, unassigned) [Compound 16-111, hydrochloride] has a Papp (physchem; pH 5) of 0.03 ×10⁻⁶ cm/s, a Papp (physchem; pH 7.4) of 0.04 ×10⁻⁶ cm/s and an IC50 (Jeko-1; Homo sapiens, JeKo-1, 72 h) of 17.6 nM. The half-life [1] was 1.72 h and the half-life ([2]; hepatocytes) was 2.22 h.

With `CC[C@@]1(O)C(=O)OCc2c1cc1n(c2=O)Cc2c-1nc1cc(F)c(C)c3c1c2[C@H]([C@@H](CO)NC(C)C)CC3` (single isomer, unassigned) [Compound 17-115] the Papp (physchem; pH 5) was 10.5 ×10⁻⁶ cm/s, the Papp (physchem; pH 7.4) was 4.8 ×10⁻⁶ cm/s and the IC50 (Jeko-1; Homo sapiens, JeKo-1, 72 h) was 16 nM. It also gave a half-life [1] of 0.1 h and a half-life ([2]; hepatocytes) of 1.5 h.

`CC[C@@]1(O)C(=O)OCc2c1cc1n(c2=O)Cc2c-1nc1cc(F)c(C)c3c1c2[C@@H]([C@@H](N)CO)CC3` (single isomer, unassigned) [Compound 16-102, hydrochloride] gave a Papp (physchem; pH 7.4) of 0.02 ×10⁻⁶ cm/s, an IC50 (Jeko-1; Homo sapiens, JeKo-1, 72 h) of 27.7 nM and a half-life [1] of 2.37 h. For the same compound, the half-life ([2]; hepatocytes) was 1.75 h.

`CC[C@@]1(O)C(=O)OCc2c1cc1n(c2=O)Cc2c-1nc1cc(F)c(C)c3c1c2[C@@H]([C@H](CCO)NC(C)C)CC3` (single isomer, unassigned) [Compound 14-92] showed a Papp (physchem; pH 5) of 17.7 ×10⁻⁶ cm/s, a Papp (physchem; pH 7.4) of 8.4 ×10⁻⁶ cm/s and an IC50 (Jeko-1; Homo sapiens, JeKo-1, 72 h) of 1.7 nM. For the same compound, the half-life [1] was 0.95 h and the half-life ([2]; hepatocytes) was > 3.62 h.

`CC[C@@]1(O)C(=O)OCc2c1cc1n(c2=O)Cc2c-1nc1cc(F)c(C)c3c1c2[C@H]([C@H](CCO)N(C)C)CC3` (single isomer, unassigned) [Compound 15-98] gave a Papp (physchem; pH 5) of 27 ×10⁻⁶ cm/s, a Papp (physchem; pH 7.4) of 11.3 ×10⁻⁶ cm/s and an IC50 (Jeko-1; Homo sapiens, JeKo-1, 72 h) of 0.25 nM. For the same compound, the half-life [1] was 0.112 h and the half-life ([2]; hepatocytes) was 1.3 h.

With `CC[C@@]1(O)C(=O)OCc2c1cc1n(c2=O)Cc2c-1nc1cc(F)c(C)c3c1c2[C@@H](N)CC3` [Exatecan] the Papp (physchem; pH 5) was > 107 ×10⁻⁶ cm/s, the IC50 (Jeko-1; Homo sapiens, JeKo-1, 72 h) was 0.4 nM and the half-life [1] was 1.25 h. For the same compound, the half-life ([2]; hepatocytes in suspension, read-out: HHEP Cl T1/2) was 2.38 h and the Papp [3] was 16.3 ×10⁻⁶ cm/s.

With `CC[C@@]1(O)C(=O)OCc2c1cc1n(c2=O)Cc2c-1nc1cc(F)c(C)c3c1c2[C@H]([C@@H](N)CO)CC3` (single isomer, unassigned) [Compound 16-108, hydrochloride] the Papp (physchem; pH 7.4) was 0.002 ×10⁻⁶ cm/s, the IC50 (Jeko-1; Homo sapiens, JeKo-1, 72 h) was 8.3 nM and the half-life [1] was 1.83 h. For the same compound, the half-life ([2]; hepatocytes) was 2.1 h.

In the case of `CCc1c2c(nc3ccc(O)cc13)-c1cc3c(c(=O)n1C2)COC(=O)[C@]3(O)CC` [SN-38, reference compound], the IC50 (Jeko-1; 72 h) is reported as 0.92 nM, the “HLM Cl T1/2” value [1] is reported as 1.35 h and the “HHEP Cl T1/2” value [2] is reported as 1.28 h.

`CC[C@@]1(O)C(=O)OCc2c1cc1n(c2=O)Cc2c-1nc1cc(F)c(C)c3c1c2[C@H]([C@@H](CCO)NC(C)C)CC3` (single isomer, unassigned) [Compound 14-95] gave a Papp (physchem; pH 5) of 12.7 ×10⁻⁶ cm/s, a Papp (physchem; pH 7.4) of 6.6 ×10⁻⁶ cm/s and an IC50 (Jeko-1; Homo sapiens, JeKo-1, 72 h) of 1.7 nM. The half-life [1] was 0.483 h and the half-life ([2]; hepatocytes) was 1.42 h.

In the case of `CC[C@@]1(O)C(=O)OCc2c1cc1n(c2=O)Cc2c-1nc1cc(F)c(C)c3c1c2[C@@H]([C@@H](CO)NC(C)C)CC3` (single isomer, unassigned) [Compound 17-113], the Papp (physchem; pH 5) is reported as 26.9 ×10⁻⁶ cm/s, the Papp (physchem; pH 7.4) is reported as 9.7 ×10⁻⁶ cm/s and the IC50 (Jeko-1; Homo sapiens, JeKo-1, 72 h) is reported as 4.2 nM. For the same compound, the half-life [1] was 0.533 h and the half-life ([2]; hepatocytes) was 2.42 h.

Compound `CC[C@@]1(O)C(=O)OCc2c1cc1n(c2=O)Cc2c-1nc1cc(F)c(C)c3c1c2[C@@H]([C@H](N)CO)CC3` (single isomer, unassigned) [Compound 16-105, hydrochloride] has a Papp (physchem; pH 5) of 0.07 ×10⁻⁶ cm/s, a Papp (physchem; pH 7.4) of 0.06 ×10⁻⁶ cm/s and an IC50 (Jeko-1; Homo sapiens, JeKo-1, 72 h) of 10.2 nM. For the same compound, the half-life [1] was > 2.42 h and the half-life ([2]; hepatocytes) was 1.87 h.

With `CC[C@@]1(O)C(=O)OCc2c1cc1n(c2=O)Cc2c-1nc1cc(F)c(C)c3c1c2[C@H]([C@H](CCO)NC(C)C)CC3` (single isomer, unassigned) [Compound 14-94] the Papp (physchem; pH 5) was 16.5 ×10⁻⁶ cm/s, the Papp (physchem; pH 7.4) was 7.5 ×10⁻⁶ cm/s and the IC50 (Jeko-1; Homo sapiens, JeKo-1, 72 h) was 1.6 nM. For the same compound, the half-life [1] was 0.112 h and the half-life ([2]; hepatocytes) was 1.13 h.

`CC[C@@]1(O)C(=O)OCc2c1cc1n(c2=O)Cc2c-1nc1cc(F)c(C)c3c1c2[C@@H]([C@@H](CCO)NC(C)C)CC3` (single isomer, unassigned) [Compound 14-93] gave a Papp (physchem; pH 5) of 20.6 ×10⁻⁶ cm/s, a Papp (physchem; pH 7.4) of 9.2 ×10⁻⁶ cm/s and an IC50 (Jeko-1; Homo sapiens, JeKo-1, 72 h) of 2.6 nM. For the same compound, the half-life [1] was 0.767 h and the half-life ([2]; hepatocytes) was 3.08 h.

In the case of `CC[C@@]1(O)C(=O)OCc2c1cc1n(c2=O)Cc2c-1nc1cc(F)c(C)c3c1c2[C@@H](NC(=O)CO)CC3` [Dxd, reference compound], the IC50 (Jeko-1; 72 h) is reported as 0.95 nM, the “HLM Cl T1/2” value [1] is reported as 1.67 h and the “HHEP Cl T1/2” value [2] is reported as >3.62 h.

With `CC[C@@]1(O)C(=O)OCc2c1cc1n(c2=O)Cc2c-1nc1cc(F)c(C)c3c1c2[C@@H]([C@@H](CCO)N(C)C)CC3` (single isomer, unassigned) [Compound 15-97] the Papp (physchem; pH 5) was 36.6 ×10⁻⁶ cm/s, the Papp (physchem; pH 7.4) was 15.7 ×10⁻⁶ cm/s and the IC50 (Jeko-1; Homo sapiens, JeKo-1, 72 h) was 0.3 nM. For the same compound, the half-life [1] was 0.6 h and the half-life ([2]; hepatocytes) was 1.88 h.

For Adalimumab, the “AC-SINS shift / self-interaction” value [4] was “low shift”.

`CC[C@@]1(O)C(=O)OCc2c1cc1n(c2=O)Cc2c-1nc1cc(F)c(C)c3c1c2[C@H]([C@H](CO)NC(C)C)CC3` (single isomer, unassigned) [Compound 17-114] gave a Papp (physchem; pH 5) of 18.3 ×10⁻⁶ cm/s, a Papp (physchem; pH 7.4) of 8 ×10⁻⁶ cm/s and an IC50 (Jeko-1; Homo sapiens, JeKo-1, 72 h) of 1.9 nM. For the same compound, the half-life [1] was 0.035 h and the half-life ([2]; hepatocytes) was 0.8 h.

For `CC[C@@]1(O)C(=O)OCc2c1cc1n(c2=O)Cc2c-1nc1cc(F)c(C)c3c1c2[C@@H]([C@H](CCO)N(C)C)CC3` (single isomer, unassigned) [Compound 15-96], the Papp (physchem; pH 5) was 16.7 ×10⁻⁶ cm/s, the Papp (physchem; pH 7.4) was 15.6 ×10⁻⁶ cm/s and the IC50 (Jeko-1; Homo sapiens, JeKo-1, 72 h) was 0.52 nM. The half-life [1] was 1.6 h and the half-life ([2]; hepatocytes) was > 3.62 h.

Work on `CC[C@@]1(O)C(=O)OCc2c1cc1n(c2=O)Cc2c-1nc1cc(F)c(C)c3c1c2[C@H]([C@@H](CCO)N(C)C)CC3` (single isomer, unassigned) [Compound 15-99] yielded a Papp (physchem; pH 5) of 14.9 ×10⁻⁶ cm/s, a Papp (physchem; pH 7.4) of 8.5 ×10⁻⁶ cm/s and an IC50 (Jeko-1; Homo sapiens, JeKo-1, 72 h) of 0.32 nM. It also gave a half-life [1] of 0.967 h and a half-life ([2]; hepatocytes) of 3.47 h.

With `CC[C@@]1(O)C(=O)OCc2c1cc1n(c2=O)Cc2c-1nc1cc(F)c(C)c3c1c2[C@@H]([C@H](CO)NC(C)C)CC3` (single isomer, unassigned) [Compound 17-112] the Papp (physchem; pH 5) was 14.4 ×10⁻⁶ cm/s, the Papp (physchem; pH 7.4) was 6.3 ×10⁻⁶ cm/s and the IC50 (Jeko-1; Homo sapiens, JeKo-1, 72 h) was 17 nM. For the same compound, the half-life [1] was 1.03 h and the half-life ([2]; hepatocytes) was > 3.62 h.
